Counter-ions that a name gives are not always drawn.
system: mixed lymphocyte reaction (PBMC with allogeneic PBMC or Eppstein-Barr Virus-transformed human B cells as stimulator cells); experiment: Mixed lymphocyte reaction (MLR) assay; type: cell-based; conditions: lowest concentration giving 50% suppression of the MLR; [3H]-thymidine
Experimental: Pteridine derivatives were first dissolved (10 mM) in dimethylsulfoxide (hereinafter referred as DMSO) and further diluted in culture medium before use for the following in vitro experiments. The commercially available culture medium consisted of RPMI-1640+10% foetal calf serum (FCS). Some pteridine derivatives described in the previous examples (as indicated in table 1) were tested in the following mixed lymphocyte reaction (MLR) assay.
Peripheral blood mononuclear cells (hereinafter referred as PBMC) were isolated from heparinized peripheral blood by density gradient centrifugation over Lymphoprep (Nycomed, Maorstua, Norway). Allogeneic PBMC or Eppstein-Barr Virus-transformed human B cells [commercially available under the trade name RPM11788 (ATCC name CCL156)] which strongly express B7-1 and B7-2 antigens were used as stimulator cells after irradiation with 30 Gy. MLR was performed in triplicate wells. After 5 days incubation at 37° C., 1 μCi [^3H]-thymidine was added to each cup. After a further 16 hours incubation, cells were harvested and counted in a […]. Inhibition of proliferation by a compound (drug) described in some of the previous examples was counted using the formula: [formula] wherein cpm is the thymidine count per minute. The MLR assay is regarded by those skilled in the art as an in vitro analogue of the transplant rejection since it is based on the recognition of allogeneic major histocompatibility antigens on the stimulator leukocytes, by responding lymphocytes.

Molecule | IC50
COc1ccc(-c2cnc3nc(N)nc(N4CCN(C(=O)Nc5cccc(I)c5)CC4)c3n2)cc1OC [Example 197, 2-amino-4-(N-3-iodo-phenyl-carbamoyl-piperazin-1-yl)-6-(3,4-dimethoxyphenyl)pteridine] | 40 nM
COc1ccc(-c2cnc3nc(N)nc(N4CCN(Cc5cccc6ccccc56)CC4)c3n2)cc1OC [Example 158, 2-amino-4-((1-naphtylmethyl)-piperazin-1-yl)-6-(3,4-dimethoxyphenyl)pteridine] | 800 nM
COc1ccc(-c2cnc3nc(N)nc(N4CCN(c5ccc(C(F)(F)F)cc5[N+](=O)[O-])CC4)c3n2)cc1OC [Example 185, 2-amino-4-[4-trifluoromethyl-2-nitro-phenyl-piperazin-1-yl)-6-(3,4-dimethoxyphenyl)pteridine] | 1900 nM
COc1ccc(-c2cnc3nc(N)nc(N4CCN(c5cccc(C)c5)CC4)c3n2)cc1OC [Example 175, 2-amino-6-(3,4-dimethoxyphenyl)-4-((3-methylphenyl)-piperazin-1-yl)pteridine] | 400 nM
COc1ccc(-c2cnc3nc(N)nc(N4CCN(C(=O)Oc5ccccc5Cl)CC4)c3n2)cc1OC [Example 96, 2-amino-4-[N-(2-chloro)-phenoxy-carbonyl-piperazin-1-yl]-6-(3,4-dimethoxyphenyl)pteridine] | 150 nM
COc1ccc(-c2cnc3nc(N)nc(N4CCN(S(=O)(=O)c5ccccc5)CC4)c3n2)cc1OC [Example 31, 2-amino-4-[(N-phenylsulfonyl)-piperazin-1-yl]-6-(3,4-dimethoxy-phenyl)pteridine] | 3000 nM
COc1cc(-c2cnc3nc(N)nc(N4CCN(c5ccc(C)cc5)CC4)c3n2)ccc1O [Example 206] | 500 nM
COc1ccc(-c2cnc3nc(N)nc(N4CCN(C/C=C/c5ccccc5)CC4)c3n2)cc1OC [Example 66, 2-amino-4-(N-trans-cinnamylpiperazin-1-yl)-6-(3,4-dimethoxy-phenyl)pteridine] | 800 nM
COc1ccc(-c2cnc3nc(N)nc(N4CCN(C(=O)[C@@H](N)CC(N)=O)CC4)c3n2)cc1OC [Example 111, 2-amino-4-[N-[2-(S),4-diamino-4-oxobutanoyl]-piperazin-1-yl]-6-(3,4-dimethoxyphenyl)pteridine] | 8800 nM
COc1ccc(-c2cnc3nc(N)nc(N4CCN(C(=O)Nc5ccc(Br)cc5)CC4)c3n2)cc1OC [Example 196, 2-amino-4-(N-4-bromo-phenyl-carbamoyl-piperazin-1-yl)-6-(3,4-dimethoxyphenyl)pteridine] | 100 nM
COCCN1CCN(c2nc(N)nc3ncc(-c4ccc(OC)c(OC)c4)nc23)CC1 [Example 122, 2-amino-4-(1-(2-methoxyethyl)piperazino)-6-(3,4-dimethoxyphenyl)pteridine] | 800 nM
CC(=O)N1CCN(c2nc(N)nc3ncc(-c4ccc(Cl)cc4)nc23)CC1 [Example 58, 2-amino-4-(N-acetylpiperazin-1-yl)-6-(4-chloro-phenyl)pteridine] | 7600 nM
COCC(=O)N1CCN(c2nc(N)nc3ncc(-c4ccc(OC)c(OC)c4)nc23)CC1 [Example 41, 2-amino-4-[(N-methoxyacetyl)-piperazin-1-yl]-6-(3,4-dimethoxyphenyl)pteridine] | 500 nM
COc1ccc(-c2cnc3nc(N)nc(N4CCN(Cc5ccc(F)cc5)CC4)c3n2)cc1OC [Example 138, 2-amino-4-((4-fluorobenzyl)piperazin-1-yl)-6-(3,4-dimethoxyphenyl)pteridine] | 6000 nM
CC(=O)N1CCN(c2nc(N)nc3ncc(-c4ccccc4)nc23)CC1 [Example 55, 2-amino-4-(N-acetylpiperazin-1-yl)-6-phenyl-pteridine] | 5100 nM
2-amino-4-(1-(2-imidazol-1-yl-ethyl-piperazine)-6-(3,4-dimethoxyphenyl)pteridine [Example 155] | 3600 nM
COc1cc(-c2cnc3nc(N)nc(N4CCN(c5ccc(C)cc5)CC4)c3n2)ccc1OC(C)C [Example 208] | 4400 nM
COc1ccc(-c2cnc3nc(N)nc(N4CCN(C(=O)NCc5ccccc5)CC4)c3n2)cc1OC [Example 104, 2-amino-4-(N-benzylcarbamoyl-piperazin-1-yl)-6-(3,4-dimethoxyphenyl)pteridine] | 18 nM
COc1ccc(-c2cnc3nc(N)nc(N4CCN(C(=O)Nc5ccc(C(F)(F)F)cc5)CC4)c3n2)cc1OC [Example 194, 2-amino-4-(N-4-trifluoromethyl-phenyl-carbamoyl-piperazin-1-yl)-6-(3,4-dimethoxyphenyl)pteridine] | 52 nM
COc1ccc(-c2cnc3nc(N)nc(N4CCN(C(=O)c5ccoc5)CC4)c3n2)cc1OC [Example 47, 2-amino-4-[N-(3-furoylcarbonyl)-piperazin-1-yl]-6-(3,4-dimethoxyphenyl)pteridine] | 300 nM

system: production of TNF-α by PBMC in response to stimulation by LPS; experiment: TNF-α assay; type: cell-based, human; conditions: Homo sapiens, LPS 1 μg/ml, 72 hours, sandwich ELISA
Experimental: Peripheral blood mononuclear cells (herein referred as PBMC), in response to stimulation by lipopolysaccharide (hereinafter LPS), a gram-negative bacterial endotoxin, produce various […], in particular human TNF-α. Inhibition of the activation of PBMC can therefore be measured by the level of suppression of the production of TNF-α by PBMC in response to stimulation by LPS.
Such inhibition measurement was performed as follows: PBMC were isolated from heparinized peripheral blood by density gradient centrifugation over Lymphoprep (commercially available from Nycomed, Norway). LPS was then added to the PMBC suspension in complete medium (10^6 cells/ml) at a final concentration of 1 μg/ml. The pteridine derivative to be tested was added at different concentrations (0.1 μM, 1 μM and 10 μM) and the cells were incubated at 37° C. for 72 hours in 5% CO2. The supernatants were collected, then TNF-α concentrations were measured with respectively an anti-TNF-α antibody in a sandwich ELISA (Duo Set ELISA human TNFα, commercially available from R&D Systems, United Kingdom). The calorimetric reading of the ELISA was measured by a Multiskan RC plate reader (commercially available from ThermoLabsystems, Finland) at 450 nm (reference wavelength: 690 nm). Data analysis was performed with Ascent software 2.6. (also from ThermoLabsystems, Finland): a standard curve (recombinant human TNFα) was drawn and the amount (pg/ml) of each sample on the standard curve was determined.
The % suppression of human TNFα production by the pteridine derivatives of the invention (drugs) was calculated using the formula: [formula]

Molecule | IC50
COc1ccc(-c2cnc3nc(N)nc(N4CCN(CCCN(C)C)CC4)c3n2)cc1OC [Example 182, 2-amino-6-(3,4-dimethoxyphenyl)-4-(4-(3-dimethylaminopropyl)-piperazin-1-yl)pteridine trihydrochloride salt] | 4800 nM
COc1ccc(-c2cnc3nc(N)nc(N4CCN(CCN(C)C)CC4)c3n2)cc1OC [Example 181, 2-amino-6-(3,4-dimethoxyphenyl)-4-(4-(2-dimethylaminoethyl)-piperazin-1-yl)-pteridine trihydrochloride salt] | 8800 nM

same assay, conditions: LPS 1 μg/ml, 72 hours, sandwich ELISA

Molecule | IC50
COc1ccc(-c2cnc3nc(N)nc(N4CCN(Cc5cccc6ccccc56)CC4)c3n2)cc1OC [Example 158, 2-amino-4-((1-naphtylmethyl)-piperazin-1-yl)-6-(3,4-dimethoxyphenyl)pteridine] | 700 nM
COc1ccc(-c2cnc3nc(N)nc(N4CCN(c5ccc(C(F)(F)F)cc5[N+](=O)[O-])CC4)c3n2)cc1OC [Example 185, 2-amino-4-[4-trifluoromethyl-2-nitro-phenyl-piperazin-1-yl)-6-(3,4-dimethoxyphenyl)pteridine] | 500 nM
COc1ccc(-c2cnc3nc(N)nc(N4CCN(C(=O)Oc5ccccc5Cl)CC4)c3n2)cc1OC [Example 96, 2-amino-4-[N-(2-chloro)-phenoxy-carbonyl-piperazin-1-yl]-6-(3,4-dimethoxyphenyl)pteridine] | 10 nM
COc1ccc(-c2cnc3nc(N)nc(N4CCN(S(=O)(=O)c5ccccc5)CC4)c3n2)cc1OC [Example 31, 2-amino-4-[(N-phenylsulfonyl)-piperazin-1-yl]-6-(3,4-dimethoxy-phenyl)pteridine] | 500 nM
COc1cc(-c2cnc3nc(N)nc(N4CCN(c5ccc(C)cc5)CC4)c3n2)ccc1O [Example 206] | 700 nM
COc1ccc(-c2cnc3nc(N)nc(N4CCN(C/C=C/c5ccccc5)CC4)c3n2)cc1OC [Example 66, 2-amino-4-(N-trans-cinnamylpiperazin-1-yl)-6-(3,4-dimethoxy-phenyl)pteridine] | 300 nM
COc1ccc(-c2cnc3nc(N)nc(N4CCN(C(=O)[C@@H]5CCCN5)CC4)c3n2)cc1OC [Example 62, 2-amino-4-[N-(pyrrolidin-2-(S)-yl)carbonyl-piperazin-1-yl]-6-(3,4-dimethoxy-phenyl)pteridine] | 7600 nM
COC(=O)c1ccc(C(=O)N2CCN(c3nc(N)nc4ncc(-c5ccc(OC)c(OC)c5)nc34)CC2)cc1 [Example 112, 2-amino-4-[N-[4-(methoxycarbonyl)benzoyl]-piperazin-1-yl]-6-(3,4-dimethoxy-phenyl)pteridine] | 280 nM
CCOC(=O)CN1CCN(c2nc(N)nc3ncc(-c4ccc(OC)c(OC)c4)nc23)CC1 [Example 135, 2-amino-4-(2-(piperazin-1-yl)-acetic acid ethyl ester)-6-(3,4-dimethoxyphenyl)pteridine] | 270 nM
COc1ccc(-c2cnc3nc(N)nc(N4CCN(C(=O)CN(C)C)CC4)c3n2)cc1OC [Example 113, 2-amino-4-[N-[4-(dimethylamino)acetyl]-piperazin-1-yl]-6-(3,4-dimethoxy-phenyl)pteridine] | 3200 nM
COc1ccc(-c2cnc3nc(N)nc(N4CCN(C(C)=O)CC4)c3n2)cc1OC [Example 8, 2-amino-4-(N-acetylpiperazin-1-yl)-6-(3,4-dimethoxyphenyl)pteridine] | 400 nM
CCN(C(=O)N1CCN(c2nc(N)nc3ncc(-c4ccc(OC)c(OC)c4)nc23)CC1)c1ccccc1 [Example 118, 2-amino-4-(N-ethyl-N-phenyl-carbamoyl-piperazin-1-yl)-6-(3,4-dimethoxyphenyl)pteridine] | 70 nM
COc1ccc(-c2cnc3nc(N)nc(N4CCN(Cc5ccc6c(c5)OCO6)CC4)c3n2)cc1OC [Example 143, 2-amino-4-(piperonyl-piperazin-1-yl)-6-(3,4-dimethoxyphenyl)pteridine] | 800 nM
COc1ccc(-c2cnc3nc(N)nc(N4CCN(Cc5cccnc5)CC4)c3n2)cc1OC [Example 156] | 400 nM
COc1ccc(-c2cnc3nc(N)nc(N4CCN(Cc5ccc(C)cc5)CC4)c3n2)cc1OC [Example 140, 2-amino-4-((4-methylbenzyl)piperazin-1-yl)-6-(3,4-dimethoxyphenyl)pteridine] | 1300 nM
COc1ccc(-c2cnc3nc(N)nc(N4CCN(C(=O)c5cc(F)c(Cl)nc5Cl)CC4)c3n2)cc1OC [Example 40] | 700 nM
COc1ccc(-c2cnc3nc(N)nc(N4CCN(CC5OCCO5)CC4)c3n2)cc1OC [Example 170, 2-amino-6-(3,4-dimethoxyphenyl)-4-(1,3-dioxolan-2-yl-methylpiperazin-1-yl)pteridine] | 400 nM
